Data taken from article PMC10892288, “Early Stage Preclinical Formulation Strategies to Alter the Pharmacokinetic Profile of Two Small Molecule Therapeutics” (Pharmaceuticals, 2024).
In brackets after ≈: the same amount, converted by molar mass.

Legend:
[1] = Log P (physiochemical properties); format: physicochemical
[2] = Solubility in phosphate buffer saline (PBS); format: physicochemical; details: phosphate buffered saline (PBS)
[3] = Mouse IV infusion of G7883 by iPRECIO pump; format: in vivo, female C57BL-6 mice
Excerpt: This is often a concern for molecules in early drug discovery stages. Various formulation and delivery strategies have been devised to modify the systemic PK profiles of drug molecules, encompassing nanoparticles, microparticles, lipid and polymer conjugation, implanted infusion pump device technologies, and subcutaneous depots. Here, we examined two strategies aimed at maintaining the drug concentration at a designed target concentration for the maximum duration potentially needed for proof of concept studies. The initial approach involved using an implantable device, the iPRECIO pump that allows for a controlled and sustained infusion, as opposed to a typical bolus IV injection. The infusion pump strategies can be a promising tool to achieve the desired delivery profile of a compound, given the solubility requirements based on the intended target release and PK profile. […]
All plasma and cell media concentrations of G7883 and G6893 were determined using liquid chromatography–tandem mass spectrometry after protein precipitation with acetonitrile and injection of the supernatant onto the column (Waters ACQUITY UPLC BEH C18 1.7 μm, 2.1 × 50 mm for G7883 and G6893). […] The lower limit of quantitation of the assay was 5.1 ng/mL, and the dilution quality control concentration was set at 10 ng/mL with acceptance criteria for accuracy and precision of 25%.

logP [1]: 1.83 | solubility [2]: 89 µg/mL (≈ 178 µM)
SMILES: Cc1nccnc1-c1nn2c(=O)cc(-c3ccc(C4CCCCC4)cc3)[nH]c2c1C(=O)N1CC(CF)C1 [G7883, 5-(4-cyclohexylphenyl)-3-[3-(fluoromethyl)azetidine-1-carbonyl]-2-(3-methylpyrazin-2-yl)-4H-pyrazolo[1,5-a]pyrimidin-7-one]
plasma concentration relative to target IC50 ([3]; 3.3 mg/mL in 20% DMSO, 80% PEG400, 1.54 mg/h.kg, over 176 h, mouse): plasma concentrations remained below the target IC50 | body weight over time ([3]; 20% DMSO, 80% PEG400, mouse): prevention of body weight loss over time
